Results on 21 compounds are retold here after PubChem BioAssay (NCI).

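Five compound concentrations were applied to cells in 96-well plates for 48 hours; endpoints were derived by simple linear interpolation of the resulting dose-response curve. Definition used: TGI = concentration required for complete inhibition of growth.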

Assay in all cases: DTP human tumour cell line panel, 48 h
Assay [1] has as its system COLO 205 colon.
Assay [2] has as its system BT-549 breast.
The subject of assay [3] is SK-MEL-28 melanoma.
Assay [4] relates to OVCAR-3 ovarian.
Assay [5] concerns SF-295 CNS.
The test system of assay [6] is HS 578T breast.
For assay [7], the system named is EKVX NSCLC.

As for `COc1c(OC(C)C)c(OC(C)C)c2oc(=O)n3c2c1C(c1ccccc1-n1c(C)ccc1C)C=C3` (configuration not stated), the TGI in assay [1], in assay [2], in assay [3], in assay [4], in assay [5] and in assay [6] was above 100 µM throughout. In assay [7], the concentration for total growth inhibition (TGI) – broadly, the concentration at which net growth stops – amounted to 95.4 µM.
As to `CCCSc1ccc2[nH]c(/N=C/c3ccccc3)cc2c1`, the TGI was determined as 44.5 µM in assay [1]; 97.2 µM in assay [2]; 90.7 µM in assay [3]; 60.3 µM in assay [4]; 62.1 µM in assay [6]; 76.2 µM in assay [7].
On to `CCOC(=O)CCC(NC(=O)c1ccc(Oc2nc3ccccc3nc2-c2ccccc2)cc1)C(=O)OCC` (configuration not stated), for which the TGI in assay [1] is above 100 µM; in assay [3], above 100 µM; in assay [4] it was above 64.8 µM; in assay [5], above 60.7 µM; in assay [6], 27.3 µM; in assay [7], above 100 µM.
In the case of `O=C1CCCCCCCCCCC1CCCCCBr` (configuration not stated), the TGI in assay [1] is 35.8 µM; in assay [3], 84.4 µM; in assay [4], 44.7 µM; in assay [5] it was above 100 µM; in assay [6] it was above 100 µM; in assay [7] it was above 100 µM.
Regarding `O=C(O)C1CCCCC1C(=O)Nn1cnnc1` (configuration not stated), the TGI in assay [1], in assay [2], in assay [3], in assay [4], in assay [5] and in assay [7] was above 100 µM in each case.
Turning to `CO[C@@H]1C[C@H]2[C@@H]3CC[C@H]([C@@H](C)CO)[C@@]3(C)CC[C@@H]2[C@@]2(C)CC[C@H]3C[C@]312`, the concentration for total growth inhibition (TGI) in assay [1] is 31.4 µM; in assay [3], 83.5 µM; in assay [4] it was above 100 µM; in assay [5] it was 89.2 µM; in assay [6], 82.3 µM; in assay [7], above 100 µM.
Regarding `COc1cccc(C2c3cc4c(cc3OC(N3CCOCC3)C2C)OCO4)c1OC` (configuration not stated), the total growth inhibition concentration (TGI) in assay [1] was 28.2 µM; in assay [3] it was 32 µM; in assay [4] it was 36.7 µM; in assay [5], 32.9 µM; in assay [6] it was 63.5 µM; in assay [7] it was above 100 µM.
`N#CC(C#N)=C/C=C(\Sc1c(Cl)c(Cl)nc(Cl)c1Cl)c1ccc(Cl)cc1`: the TGI was 55.4 µM in assay [1]; 49.7 µM in assay [3]; 27.3 µM in assay [4]; 44.9 µM in assay [5]; 63.7 µM in assay [6]; above 100 µM in assay [7].
Consider `Cc1ccc(N2C(=O)C=C(C3=C(O)C(=O)N(c4ccc(C)cc4)C3=O)C2=O)cc1`, for which the TGI in assay [1], in assay [2], in assay [3], in assay [4], in assay [5] and in assay [7] was above 100 µM each time.
For the compound `CC1=NN(c2cccc(Cl)c2)C2(SCC(=O)N2c2nc3ccccc3s2)/C1=C\c1ccc(N(C)C)cc1` (configuration not stated), the total growth inhibition concentration (TGI) in assay [3] was above 100 µM; in assay [4], above 100 µM; in assay [5] it was above 100 µM; in assay [6], 75.7 µM; in assay [7], above 100 µM.
In the case of `O=C(CC(C(=O)c1cccs1)c1cccs1)c1ccsc1` (configuration not stated), the concentration for total growth inhibition (TGI) in assay [1], in assay [3], in assay [6] and in assay [7] was above 100 µM in each case.
`COc1ccc(/C=C2\CN(C)C/C(=C\c3ccc(OC)cc3)C2=O)cc1`: the concentration for total growth inhibition (TGI) in assay [1], in assay [3], in assay [4], in assay [5], in assay [6] and in assay [7] was above 100 µM in each case.
For the compound `C1CCCCC2(CCCCCCCCC3(CCC1)OCCO3)OCCO2`, the TGI in assay [1], in assay [3], in assay [4], in assay [5], in assay [6] and in assay [7] was above 100 µM in each case.
Regarding `CCOP(=O)(OCC)/C(=C/NC(=S)c1ccncc1)C(=O)OC`, the total growth inhibition concentration (TGI) in assay [1], in assay [2], in assay [4], in assay [5], in assay [6] and in assay [7] was above 100 µM throughout.
Take `CCN1C(=O)C(=C/C=C/C=C2/N(C)c3ccccc3C2(C)C)C(=O)N(CC)C1=S`: the TGI in assay [1] was above 100 µM; in assay [2] it was 70.9 µM; in assay [4], above 100 µM; in assay [5] it was above 100 µM; in assay [6], above 100 µM; in assay [7] it was above 100 µM.
Consider `COc1cccc2c1CCc1cc3c(N)nc(N)nc3nc1-2`, for which the TGI in assay [1] was determined as 29.8 µM; in assay [2] it was 52.1 µM; in assay [3], 11 µM; in assay [4], 16 µM; in assay [5], 9.91 µM; in assay [7], 15.3 µM.
Take `CC(C)(Oc1ccccc1)C(=O)Sc1c(-c2ccccc2)c(=O)n(-c2ccccc2)c(=S)n1-c1ccccc1`: the TGI is above 100 µM in assay [1]; above 100 µM in assay [3]; 96.4 µM in assay [4]; above 100 µM in assay [5]; 85.4 µM in assay [6]; above 100 µM in assay [7].
As for `CCCCCCCCCCCCN1[C@H]2CCC[C@H]2C(O)[C@@H]2CCC[C@@H]21` (some centres not stated), the total growth inhibition concentration (TGI) in assay [1], in assay [2], in assay [3], in assay [4] and in assay [6] was above 100 µM in each case.
For `C/C(=N\n1c(Cc2ccccc2)n[nH]c1=O)c1ccccc1`, the total growth inhibition concentration (TGI) in assay [1], in assay [2], in assay [3], in assay [6] and in assay [7] was above 100 µM each time.
For the compound `Cc1cccc(C)c1NC(=O)C(=O)CC(=O)/C=C/c1ccccc1`, the total growth inhibition concentration (TGI) in assay [2], in assay [3], in assay [4], in assay [5], in assay [6] and in assay [7] was above 100 µM throughout.
As for `COc1cc(S(=O)(=O)Nc2nc(-c3ccc(N4C(=O)/C(=C/C=C/c5ccccc5)N=C4c4ccccc4)cc3)cs2)ccc1Cl`, the TGI is above 100 µM in assay [1]; 94 µM in assay [2]; above 100 µM in assay [3]; above 100 µM in assay [4]; above 100 µM in assay [5]; above 100 µM in assay [6].
